Assay results from patent publication US7435847B2, “Preparation of solid ammonium glyphosate using organic solvent in extraction” (priority 2002, dated 2008).

Assays:
[1] = saturation concentrations of ammonium glyphosate in different aqueous methanol solutions; format: physicochemical; details: 30° C.
Text: The amount of gaseous ammonia introduced is 1.01-1.5 times by mole as that of glyphosate added. When the ammonia is not enough, the reaction will not be carried out completely to cause the product having relatively more glyphosate, and thus a part of the water-soluble solid ammonium glyphosate may not be dissolved due to very low the solubility of glyphosate in water. If the ammonia is introduced in excess, relatively more free ammonia will remain in the system, thereby the ammonia will escape in subsequent processes to result in the environmental pollution. A relatively simple method for judging the end point of the reaction is to measure the pH of the reaction system. The inventor believes that the pH should be kept at 5-8. The solubility of ammonium glyphosate varies with the concentration of the aqueous methanol solution, the higher the concentration of aqueous methanol solution is, the lower the solubility of ammonium glyphosate is. The saturation concentrations of ammonium glyphosate in different concentrations of the aqueous methanol solution at 30° C. are listed in Table 1.

[2] = concentration of aqueous solutions of ammonium glyphosate salt at room temperature; format: physicochemical; details: water
Text: Wherein m is a positive integer from 1 to 3, the ammonium cation may link to the hydroxyl which is bonded with a carbonyl or a phosphoryl. As for the single molecule, m equals 1-3. The generally used ammonium glyphosate salt is a mono-ammonium salt, namely, m equals 1. However, it may not be deemed simply that the ammonium glyphosate salt obtained in practical production has m just equal to a positive integer, but a value in the range of 0.8-1.3. These substances have very high solubility in water and the concentration of their aqueous solutions may be more than 20% at room temperature. However, they have very low solubility in such organic solvents that are completely miscible with any proportion of water or have a relatively high solubility in water. Thus, after the reaction is ended, such organic solvent(s) is(are) added to the reaction solution to form a homogeneous solution with water in the system, thereby substantially decreasing the solubility of the ammonium glyphosate salt therein and crystallizing the salt out. Such solvents may include, or may be, alcohols and acetals, etc. or a mixture of two or more solvents. The alcohols may include monobase alcohols having 1-4 carbon atoms. It is preferred to use methanol, ethanol, propanol, butanol and methylal in terms of cost effective, which can be used alone or as a mixture of thereof. […]

[3] = 25° C.; cited from earlier work

| Structure (SMILES) | Saturation concentration (w/w) % ([1]; content of methanol 5 (w/w) %, aqueous methanol solution) | Saturation concentration (w/w) % ([1]; content of methanol 20 (w/w) %, aqueous methanol solution) | Saturation concentration (w/w) % ([1]; content of methanol 40 (w/w) %, aqueous methanol solution) | Saturation concentration (w/w) % ([1]; content of methanol 60 (w/w) %, aqueous methanol solution) | Saturation concentration (w/w) % ([1]; content of methanol 80 (w/w) %, aqueous methanol solution) | Saturation concentration (w/w) % ([1]; content of methanol 100 (w/w) %) | concentration of aqueous solution [2] | solubility of glyphosate in water [3] |
| --- | --- | --- | --- | --- | --- | --- | --- | --- |
| N.O=C(O)CNCP(=O)(O)O [ammonium glyphosate] | 18.2 (w/w) % | 8.9 (w/w) % | 4.3 (w/w) % | 1.5 (w/w) % | 0.9 (w/w) % | 0.6 (w/w) % | more than 20% | – |
| O=C(O)CNCP(=O)(O)O [glyphosate, N-phosphonomethyl glycine] | – | – | – | – | – | – | – | 1.2 g per 100 g water |
